Reference: ChEMBL document CHEMBL5724914, “Linking interpersonal differences in gut microbiota composition and drug biotransformation activity” (2024)

Legend:
[1] = (§1) The drug is tested on WLS-007 corresponding to human gut metagenome with ENA study accession number: PRJEB37062 and ENA sample accession number: ERS12561742 for biotransformation under anaerobic condition. The drug concentrations were measured over 9 timepoints collected between 0 and 24 hours of incubation by liquid-chromatography-coupled mass spectrometry (LC–MS); conditions: 2 µM
[2] = as §1, with “Z-001” for “WLS-007”, “mouse” for “human”, “ERS12561801” for “ERS12561742”; conditions: 2 µM
[3] = as §1, with “Z-023” for “WLS-007”, “to” for “to human gut”, “ERS12561822” for “ERS12561742”; conditions: 2 µM
[4] = as §1, with “Z-007” for “WLS-007”, “rat” for “human”, “ERS12561807” for “ERS12561742”; conditions: 2 µM
[5] = as §1, with “WLS-098” for “WLS-007”, “ERS12561754” for “ERS12561742”; conditions: 2 µM
[6] = human gut metagenome, 24 h, 2 µM
[7] = as §1, with “Z-022” for “WLS-007”, “mouse” for “human”, “ERS12561821” for “ERS12561742”; conditions: 2 µM
[8] = as §1, with “Z-021” for “WLS-007”, “to” for “to human gut”, “ERS12561820” for “ERS12561742”; conditions: 2 µM
[9] = human gut metagenome, 24 h, 2 µM; remark: listed apart in the source
[10] = human gut metagenome, 24 h, 2 µM; remark: listed apart in the source
[11] = human gut metagenome, 24 h, 2 µM; remark: listed apart in the source
[12] = human gut metagenome, 24 h, 2 µM; remark: listed apart in the source
[13] = as §1, with “Z-026” for “WLS-007”, “to” for “to human gut”, “ERS12561825” for “ERS12561742”; conditions: 2 µM
[14] = human gut metagenome, 24 h, 2 µM; remark: listed apart in the source
[15] = as §1, with “Z-013” for “WLS-007”, “rabbit” for “human”, “ERS12561813” for “ERS12561742”; conditions: 2 µM
[16] = human gut metagenome, 24 h, 2 µM; remark: listed apart in the source
[17] = as §1, with “Z-028” for “WLS-007”, “mouse” for “human”, “ERS12561827” for “ERS12561742”; conditions: 2 µM
[18] = as §1, with “Z-016” for “WLS-007”, “mouse” for “human”, “ERS12561815” for “ERS12561742”; conditions: 2 µM
[19] = human gut metagenome, 24 h, 2 µM; remark: listed apart in the source
[20] = human gut metagenome, 24 h, 2 µM; remark: listed apart in the source
Note: call rule not given here.

SMILES | Bacterial Biotransformation [1] | Bacterial Biotransformation [2] | Bacterial Biotransformation [3] | Bacterial Biotransformation [4] | Bacterial Biotransformation [5] | Bacterial Biotransformation [6] | Bacterial Biotransformation [7] | Bacterial Biotransformation [8] | Bacterial Biotransformation [9] | Bacterial Biotransformation [10] | Bacterial Biotransformation [11] | Bacterial Biotransformation [12] | Bacterial Biotransformation [13] | Bacterial Biotransformation [14] | Bacterial Biotransformation [15] | Bacterial Biotransformation [16] | Bacterial Biotransformation [17] | Bacterial Biotransformation [18] | Bacterial Biotransformation [19] | Bacterial Biotransformation [20]
COc1c(C)c2c(c(O)c1C/C=C(\C)CCC(=O)OCCN1CCOCC1)C(=O)OC2 [MYCOPHENOLATE MOFETIL] | Compound metabolized | Compound metabolized | Compound metabolized | Compound metabolized | Compound metabolized | Compound metabolized | Compound metabolized | Compound metabolized | Compound metabolized | Compound metabolized | Compound metabolized | Compound metabolized | Compound metabolized | Compound metabolized | Compound metabolized | Compound NOT metabolized | Compound metabolized | Compound metabolized | Compound metabolized | Compound metabolized
CCN(CC)CCOC(=O)C(Cc1cccc2ccccc12)CC1CCCO1.O=C(O)C(=O)O (stereo not given) [NAFRONYL OXALATE] | Compound metabolized | Compound NOT metabolized | Compound metabolized | Compound NOT metabolized | Compound metabolized | Compound metabolized | Compound metabolized | Compound metabolized | Compound metabolized | Compound metabolized | Compound metabolized | Compound metabolized | Compound NOT metabolized | Compound metabolized | Compound NOT metabolized | Compound metabolized | Compound metabolized | Compound metabolized | Compound metabolized | Compound metabolized
CCc1nn(CCCN2CCN(c3cccc(Cl)c3)CC2)c(=O)n1CCOc1ccccc1 [NEFAZODONE] | Compound metabolized | Compound NOT metabolized | Compound NOT metabolized | Compound NOT metabolized | Compound metabolized | Compound NOT metabolized | Compound NOT metabolized | Compound NOT metabolized | Compound NOT metabolized | Compound metabolized | Compound metabolized | Compound NOT metabolized | Compound NOT metabolized | Compound metabolized | Compound NOT metabolized | Compound metabolized | Compound NOT metabolized | Compound NOT metabolized | Compound NOT metabolized | Compound metabolized
CN1CCOC(c2ccccc2)c2ccccc2C1 (stereo not given) [NEFOPAM] | Compound metabolized | Compound NOT metabolized | Compound NOT metabolized | Compound NOT metabolized | Compound metabolized | Compound NOT metabolized | Compound NOT metabolized | Compound NOT metabolized | Compound NOT metabolized | Compound metabolized | Compound metabolized | Compound NOT metabolized | Compound NOT metabolized | Compound metabolized | Compound NOT metabolized | Compound NOT metabolized | Compound NOT metabolized | Compound NOT metabolized | Compound metabolized | Compound NOT metabolized
Cc1ccnc2c1NC(=O)c1cccnc1N2C1CC1 [NEVIRAPINE] | Compound metabolized | Compound NOT metabolized | Compound metabolized | Compound NOT metabolized | Compound metabolized | Compound NOT metabolized | Compound NOT metabolized | Compound NOT metabolized | Compound NOT metabolized | Compound NOT metabolized | Compound metabolized | Compound NOT metabolized | Compound NOT metabolized | Compound NOT metabolized | Compound NOT metabolized | Compound NOT metabolized | Compound NOT metabolized | Compound NOT metabolized | Compound NOT metabolized | Compound NOT metabolized
CO[C@]12C[C@@H](COC(=O)c3cncc(Br)c3)CN(C)[C@@H]1Cc1cn(C)c3cccc2c13 [NICERGOLINE] | Compound NOT metabolized | Compound metabolized | Compound metabolized | Compound NOT metabolized | Compound metabolized | Compound NOT metabolized | Compound metabolized | Compound metabolized | Compound NOT metabolized | Compound NOT metabolized | Compound NOT metabolized | Compound NOT metabolized | Compound metabolized | Compound NOT metabolized | Compound metabolized | Compound NOT metabolized | Compound metabolized | Compound metabolized | Compound NOT metabolized | Compound NOT metabolized
COc1ccc2c(c1OC)C(=O)O[C@@H]2[C@H]1c2c(cc3c(c2OC)OCO3)CCN1C [NOSCAPINE] | Compound NOT metabolized | Compound metabolized | Compound metabolized | Compound NOT metabolized | Compound metabolized | Compound NOT metabolized | Compound metabolized | Compound NOT metabolized | Compound NOT metabolized | Compound metabolized | Compound NOT metabolized | Compound metabolized | Compound NOT metabolized | Compound metabolized | Compound NOT metabolized | Compound NOT metabolized | Compound NOT metabolized | Compound metabolized | Compound metabolized | Compound NOT metabolized
CCCc1nc(C(C)(C)O)c(C(=O)OCc2oc(=O)oc2C)n1Cc1ccc(-c2ccccc2-c2nnn[nH]2)cc1 [OLMESARTAN MEDOXOMIL] | Compound metabolized | Compound metabolized | Compound metabolized | Compound metabolized | Compound NOT metabolized | Compound metabolized | Compound metabolized | Compound metabolized | Compound metabolized | Compound NOT metabolized | Compound metabolized | Compound NOT metabolized | Compound NOT metabolized | Compound NOT metabolized | Compound metabolized | Compound NOT metabolized | Compound NOT metabolized | Compound metabolized | Compound metabolized | Compound NOT metabolized
